Measurements taken from patent publication US8093244B2, “Heteroaryl urea derivatives useful for inhibiting CHK1” (ICOS Corporation, priority 2005, dated 2012).

Assays:
Chk1 [1] = test: Western blot of Chk1 phosphorylation at serine 296 in HT29 cells (Example 10); format: cell-based, human; conditions: gemcitabine 20 μM for two h, 22 additional h
Description: Phosphorylation at this site is not inhibited by wortmannin, which inhibits Atm and Atr. Therefore, the phosphorylation of serine 296 is distinct from phosphorylation at serines 317 and 345. […] Therefore, this approach can be used to monitor Chk1 activity in tumors in response to Chk1 activators. Further, this approach can be used to measure inhibition of Chk1 activation by Chk1 inhibitors.
Thus, HT 29 cells are treated with 20 μM gemcitabine for two h. The gemcitabine is washed out of the cell growth media and cells are incubated for 22 additional h. Protein lysates are prepared and separated by an SDS-polyacrylamide gel electrophoresis. Proteins are transferred to polyvinylidene fluoride (PVDF) membranes and probed with antisera (Cell Signalling) specific for phosphorlyated serine 296 (Cell Signalling). […] Further, HT29 cells treated with selective Chk1 inhibitors for 15 min show no serine 296 phosphorylation.

[2] = system: xenograft tumors of colon tumor cell lines; test: Xenograft animal tumor models (Example 11); format: in vivo, Balb/c (nu/nu) mice; conditions: 160 mg/kg intraperitoneal
From the text: To test the ability of the Chk1 inhibitors of the invention to enhance the killing of tumors by DNA damaging agents in mice, xenograft tumor models using colon tumor cell lines are established. 5-fluorouracil (5-FU) or gemcitabine can be used as DNA damaging agents. HT29 and Colo205 (human colon carcinoma) and H460 and Calu-6 (nonsmall cell carcinoma) cells can be used to propagate xenograft tumors in 6-8 week old female […] Balb/c (nu/nu) mice. Mice are maintained in a laminar airflow cabinet under pathogen-free conditions and fed sterile food and water ad libitum. Cell lines are grown to subconfluence in RPMI 1640 media supplemented with 10% FBS, 100 U/mL penicillin, 100 μg/mL streptomycin, and 1.5 mM L-glutamine in a 5% CO2 humidified environment. Single cell suspensions are prepared in CMF-PBS, and cell concentration adjusted to 1×10^8 cells/mL. Mice are inoculated subcutaneously (s.c.) on the right flank or right leg with a total of 1×10^7 cells (100 μL). Mice are randomized (5-15 mice/group) into four treatment groups and used when tumors reach a volume of […] (usually 7-11 days post-inoculation). Tumors are measured with vernier calipers and tumor volumes are estimated using the empirically derived formula: tumor volume (cm^3)=tumor length (cm)×tumor width (cm)×tumor depth (cm)/3.3. […] Tumor size is monitored every other day for the duration of the experiment.

Chk1 [3] = test: Western blot of Chk1 phosphorylation at serines 317 and 345 in HT29 cells (Example 9); format: cell-based, human; conditions: 20 μM for two h, 22 additional h
From the text: To determine whether an agent is a Chk1 activator, the phosphorylation state of Chk1 can be measured using phospho-specific antibodies to specific phosphorylation sites on Chk1. […] Liu et al., Genes Dev. 14:1448-1459, 2000; Zhao et al., Mol. Cell Biol. 21:4129-4139, 2001; Lopez-Girona et al., Proc. Natl. Acad. Sci. U.S.A. 98:11289-11294, 2001; Guo et al., Genes Dev. 14:2745-2756, 2000; Gatei et al., J. Biol. Chem. 278:14806-14811, 2003; Ng et al., J Biol Chem. 279 (10):8808-19, 2004; Wang et al., Natl Acad Sci USA. 100(26):15387-92, 2003; Stojic et al., Genes Dev. 18(11):1331-44, 2004. These serine sites are phosphorylated by upstream checkpoint kinases, Atm and Atr. Liu et al., Genes Dev. 14:1448-1459, 2000; Zhao et al. Mol. Cell Biol., 21:4129-4139, 2001).
The phosphorylation of these sites in response to a candidate Chk1 activator can be monitored by Western blot or immunohistochemistry of tumor cells. […] HT29 cells are treated with 20 μM gemcitabine for two h. The gemcitabine is washed out of the cell growth media and cells are incubated for 22 additional h. Protein lysates are prepared and separated by an SDS-polyacrylamide gel electrophoresis. Proteins are transferred to PVDF membranes and probed with antisera (Cell Signalling) specific for either phosphorylated serine 317 or 345 (Cell Signalling).

Row | Structure (SMILES) | phosphorylation of Chk1 serine 296 (Chk1 [1]) | tumor growth [2] | phosphorylation of Chk1 serines 317 and 345 (Chk1 [3])
1 | COC[C@H]1OC(=O)c2coc3c2[C@@]1(C)C1=C(C3=O)[C@@H]2CCC(=O)[C@@]2(C)C[C@H]1OC(C)=O [wortmannin] | not inhibited |  | 
2 | Nc1ccn([C@@H]2O[C@H](CO)[C@@H](O)C2(F)F)c(=O)n1 [gemcitabine, 2′,2′-difluoro-2′-deoxycytidine] | results in the phosphorylation of serine 296 | A delay in tumor growth is observed | results in the phosphorylation of both serines 317 and 345
